Source: US11723929B2, “Methods of improving cell-based therapy” (THE REGENTS OF THE UNIVERSITY OF CALIFORNIA, priority 2017, dated 2023)

Assays:
Exp. logP (Table 3) = type: physicochemical
[1] = PTZ Induced Seizure Model; Example 52 and FIG. 7 of WO 2015/148954; cited from earlier work
sEH [2] = biological target: T1, sEH (Homo sapiens (Human), UniProt P34913); test: Testing as inhibitor of sEH; type: biochemical
Excerpt: Derivatives of urea are transition state mimetics that form a group of sEH inhibitors. […] Any particular urea derivative or other compound can be easily tested for its ability to inhibit sEH by standard assays, such as those discussed herein. The production and testing of urea and carbamate derivatives as sEH inhibitors is set forth in detail in, for example, Morisseau et al., Proc Natl Acad Sci (USA) 96:8849-8854 (1999).
(§1) Both the 1- and the 2-adamantyl ureas have been tested and have about the same high activity as an inhibitor of sEH.
One category of these inhibitors comprises inhibitors that mimic the substrate for the enzyme. The lipid alkoxides (e.g., the 9-methoxide of stearic acid) are an exemplar of this group of inhibitors.

Metabolic stability = type: in vitro ADME
Excerpt: as §1

PDE4 = PDE4 inhibition by cAMP increase in live HEK cells transfected with a PKA biosensor; type: cell-based, human; conditions: relative to Rolipram at 1 μM
[3] = test system: murine myocardial infarction (MI) model; test: Echocardiography, left ventricular fractional shortening after MI; type: in vivo, mouse
Method: The animals were followed for a period of three weeks at which time repeat echocardiograms were performed.
An increase in hiPSC-CMs engraftment translated into a significant improvement in cardiac function.

[4] = cited from earlier work
[5] = test system: murine myocardial infarction (MI) model; test: Flow cytometric quantification of GFP+ hiPSC-CMs in the post MI model; conditions: NSG mice post MI with transplanted hiPSC-CMs, with or without TPPU; after 4 weeks
[6] = test system: murine myocardial infarction (MI) model; test: In vivo bioluminescence imaging of transplanted hiPSC-CMs in the post MI model; conditions: NSG mice post MI with transplanted hiPSC-CMs, with or without TPPU 15 mg/L in drinking water; BLI at 3 and 4 weeks
COX-1 = test: Inhibitory activity against COX-1 (Table 4); type: biochemical; set-up: dose or concentration left out as unconfirmed
sEH [7] = biological target: T1, sEH; test: Inhibitory activity against sEH (Table 4); conditions: read-out: sEH

SMILES | COX-1 (% inhibition) (COX-1) | IC50 (sEH [7]) [nM] | also measured
O=C(Nc1ccc(C(F)(F)F)cc1)NC1CCN(C(=O)C2(C(F)(F)F)CC2)CC1 | – | – | logP (Exp. logP (Table 3)): 4.63
O=C(Nc1ccc(OC(F)(F)F)c(F)c1)NC1CCN(C(=O)C2CCOCC2)CC1 [1-(3-fluoro-4-(trifluoromethoxy)phenyl)-3-(1-(tetrahydro-2H-pyran-4-carbo-nyl)piperidin-4-yl)urea] | – | – | crossing of the blood-brain barrier [1]: cross the blood-brain barrier
CCCCCCCCCCCCNC(=O)NC12CC3CC(CC(C3)C1)C2 [ADU, N-Adamantyl-N′-dodecyl urea] | – | – | activity as inhibitor of sEH (sEH [2]): particularly high activity; metabolic stability (Metabolic stability): metabolically stable
CCC(=O)N1CCC(NC(=O)Nc2ccc(OC(F)(F)F)cc2)CC1 [TPPU] | – | – | cAMP increase (% of Rolipram) (PDE4): 40 ± 10 % of Rolipram; improvement of FS with both sEHI and cells ([3]; MI+hiPSC-CM+TPPU, highest compared to other treatment groups): 40%; left ventricular fractional shortening (FS), MI+hiPSC-CM+TPPU group ([3]; after three weeks of TPPU treatment (before treatment 44±6%)): 61±2%; fractional shortening (FS), MI+TPPU group ([3]; post treatment): 55±0.7%; fractional shortening (FS), MI+TPPU+Vehicle (PBS injection) group ([3]; post treatment): 51±2%; half-life ([4]; compared with many previous compounds (ref. 50)): relatively longer half-life; area under the curve ([4]; in vivo): high area under the curve values; number of GFP+ hiPSC-CMs by flow cytometry [5]: 9.9±0.5%; BLI signal of transplanted GFP+ hiPSC-CMs [6]: 7.4×10^6±1.7×10^6 photons/s/cm^2/sr
CS(=O)(=O)c1ccc(-n2nc(CNC(=O)NC34CC5CC(CC(C5)C3)C4)cc2-c2ccccc2)cc1 [compound 1860, 1-Adamantan-1-yl-3-[1-(4-methanesulfonyl-phenyl)-5-phenyl-1H-pyrazol-3-ylmethyl]-urea] | 12.7 | 25 ± 1 | –
CS(=O)(=O)c1ccc(-n2nc(CNC(=O)Nc3cccc(C(F)(F)F)c3)cc2-c2ccccc2)cc1 [compound 1861, 1-[1-(4-Methanesulfonyl-phenyl)-5-phenyl-1H-pyrazol-3-ylmethyl]-3-(3-trifluoromethyl-phenyl)-urea] | 7.8 | 72 ± 8 | –
CS(=O)(=O)c1ccc(-n2nc(CCCNC(=O)Nc3cccc(C(F)(F)F)c3)cc2-c2ccccc2)cc1 [compound 1862, 1-{3-[1-(4-Methanesulfonyl-phenyl)-5-phenyl-1H-pyrazol-3-yl]-propyl}-3-(3-trifluoromethyl-phenyl)-urea] | 6.4 | 3.4 ± 0.2 | –
CC(C)(C)c1cc(CNC(=O)Nc2cccc(C(F)(F)F)c2)nn1-c1ccc(S(C)(=O)=O)cc1 [compound 2106, 1-[5-tert-Butyl-1-(4-methanesulfonyl-phenyl)-1H-pyrazol-3-ylmethyl]-3-(3-trifluoromethyl-phenyl)-urea] | 2.4 | 32 ± 3 | –
NS(=O)(=O)c1ccc(-n2nc(CNC(=O)Nc3cccc(C(F)(F)F)c3)cc2-c2ccccc2)cc1 [compound 2107, 4-{5-Phenyl-3-[3-(3-trifluoromethyl-phenyl)-ureidomethyl]-pyrazol-1-yl}-benzenesulfonamide] | 16.9 | 84 ± 6 | –
NS(=O)(=O)c1ccc(-n2nc(NC(=O)Nc3cccc(C(F)(F)F)c3)cc2-c2ccccc2)cc1 [compound 2121, 4-{5-Phenyl-3-[3-(3-trifluoromethyl-phenyl)-ureido]-pyrazol-1-yl}-benzenesulfonamide] | 33.9 | 88 ± 5 | –
Cc1ccc(-c2cc(CCCNC(=O)Nc3cccc(C(F)(F)F)c3)nn2-c2ccc(S(N)(=O)=O)cc2)cc1 [compound 2152, 4-(5-p-Tolyl-3-{3-[3-(3-trifluoromethyl-phenyl)-ureido]-propyl}-pyrazol-1-yl)-benzenesulfonamide] | 12.1 | 10 ± 1 | –
NS(=O)(=O)c1ccc(-n2nc(CCCNC(=O)Nc3ccccc3)cc2-c2ccccc2)cc1 [compound 2245, 4-{5-Phenyl-3-[3-(3-phenyl-ureido)-propyl]-pyrazol-1-yl}-benzenesulfonamide] | 15.8 | 0.8 ± 0.1 | –
NS(=O)(=O)c1ccc(-n2nc(CCCNC(=O)Nc3cccc(C(F)(F)F)c3)cc2-c2ccccc2)cc1 [compound 2246, 4-(5-Phenyl-3-{3-[3-(3-trifluoromethyl-phenyl)-ureido]-propyl}-pyrazol-1-yl)-benzenesulfonamide] | 27.2 | 4.1 ± 0.4 | –
NS(=O)(=O)c1ccc(-n2nc(CCCNC(=O)NC3CCCCCC3)cc2-c2ccccc2)cc1 [compound 2247, 4-{3-[3-(3-Cycloheptyl-ureido)-propyl]-5-phenyl-pyrazol-1-yl}-benzenesulfonamide] | 10.2 | 0.5 ± 0.1 | –
NS(=O)(=O)c1ccc(-n2nc(CCNC(=O)Nc3cccc(C(F)(F)F)c3)cc2-c2ccccc2)cc1 [compound 2313, 4-(5-Phenyl-3-{2-[3-(3-trifluoromethyl-phenyl)-ureido]-ethyl}-pyrazol-1-yl)-benzenesulfonamide] | 22.0 | 26 ± 3 | –
CS(=O)(=O)c1ccc(-n2nc(CNC(=O)NC3CCCCCC3)cc2-c2ccccc2)cc1 [compound 2321, 1-Cycloheptyl-3-[1-(4-methanesulfonyl-phenyl)-5-phenyl-1H-pyrazol-3-ylmethyl]-urea] | 3.4 | 2.6 ± 0.3 | –
CS(=O)(=O)c1ccc(-n2nc(CNC(=O)Nc3ccccc3)cc2-c2ccccc2)cc1 [compound 2322, 1-[1-(4-Methanesulfonyl-phenyl)-5-phenyl-1H-pyrazol-3-ylmethyl]-3-phenyl-urea] | – | 47 ± 4 | –
CS(=O)(=O)c1ccc(-n2nc(CNC(=O)Nc3ccc(OC(F)(F)F)cc3)cc2-c2ccccc2)cc1 [compound 2323, 1-[1-(4-Methanesulfonyl-phenyl)-5-phenyl-1H-pyrazol-3-ylmethyl]-3-(4-trifluoromethoxy-phenyl)-urea] | 10.4 | 6 ± 0.5 | –
CS(=O)(=O)c1ccc(-n2nc(CNC(=O)Nc3ccc(C(F)(F)F)cc3)cc2-c2ccccc2)cc1 [compound 2324, 1-[1-(4-Methanesulfonyl-phenyl)-5-phenyl-1H-pyrazol-3-ylmethyl]-3-(4-trifluoromethyl-phenyl)-urea] | 10.7 | 110 ± 5 | –
CC(C)c1cccc(C(C)C)c1NC(=O)NCCCc1cc(-c2ccccc2)n(-c2ccc(S(N)(=O)=O)cc2)n1 [compound 2325, 4-(3-{3-[3-(2,6-Diisopropyl-phenyl)-ureido]-propyl}-5-phenyl-pyrazol-1-yl)-benzenesulfonamide] | 6.2 | 1550 ± 70 | –
NS(=O)(=O)c1ccc(-n2nc(CCCNC(=O)NC34CC5CC(CC(C5)C3)C4)cc2-c2ccccc2)cc1 [compound 2326, 4-{3-[3-(3-Adamantan-1-yl-ureido)-propyl]-5-phenyl-pyrazol-1-yl}-benzenesulfonamide] | 6.7 | 0.5 ± 0.1 | –
NS(=O)(=O)c1ccc(-n2nc(CCCNC(=O)Nc3ccc(Cl)cc3)cc2-c2ccccc2)cc1 [compound 2327, 4-(3-{3-[3-(4-Chloro-phenyl)-ureido]-propyl}-5-phenyl-pyrazol-1-yl)-benzenesulfonamide] | 15.2 | 0.8 ± 0.1 | –
NS(=O)(=O)c1ccc(-n2nc(CCCNC(=O)Nc3ccc(C(F)(F)F)cc3)cc2-c2ccccc2)cc1 [compound 2328, 4-(5-Phenyl-3-{3-[3-(4-trifluoromethyl-phenyl)-ureido]-propyl}-pyrazol-1-yl)-benzenesulfonamide] | 22.7 | 0.9 ± 0.1 | –
NS(=O)(=O)c1ccc(-n2nc(CCCNC(=O)Nc3ccc(OC(F)(F)F)cc3)cc2-c2ccccc2)cc1 [compound 2329, 4-(5-Phenyl-3-{3-[3-(4-trifluoromethoxy-phenyl)-ureido]-propyl}-pyrazol-1-yl)-benzenesulfonamide] | 13.8 | 0.5 ± 0.1 | –
